Assay results: PMC12320299 (Chemical Science, 2025)

What was measured:
[1] = Total 101Ru content in tumour, organs and blood by ICP-MS; format: in vivo, BALB/c mice; details: 4 h after last injection, 10 mg kg^−1 i.p.
Method: Furthermore, tumour, organs and blood of the 1a-treated mice were collected 4 h after the last injection. […] Intraperitoneally administered compounds are primarily absorbed through the portal circulation, which can lead to a substantial liver exposure.[71] […] This paralleled earlier findings of other metal(arenes) in this tumour model.[72]
Animals. All experiments were carried out with male Balb/c mice according to the regulation of the Ethics Committee for the Care and Use of Laboratory Animals at the Medical University Vienna (BMWF-2022-0.770.291), the guidelines from the Austrian Animal Science Association and the Federation of European Laboratory Animal Science Associations (FELASA). The animals were kept in a pathogen-free conditions, controlled environment with 12 h light–dark cycle with ad libitum access to food and water. Every procedure was done in a laminar airflow […]
Treatment. CT-26 cells ([…] in 50 μL serum-free medium) were injected subcutaneously (s.c.) into the right flank of ten– to eleven-week-old male Balb/c mice. Three days after cell injection, all compounds (dissolved in 10% DMSO in water) were administered […]
1b/2b. Regarding anticancer activity experiments, mice were treated on 5 consecutive days over 2 weeks. Four hours after the last treatment 1a-treated mice were sacrificed and analysed for ruthenium levels in tissue via ICP-MS measurements. […]
Missing data points were imputed. Permutation-based FDR was set to 0.05 and S0 = 0.1 for multi-parameter corrected significance testing of protein regulation. […]
Resources (Version 6.8)13 and STRING (Version 10.0).14
Additionally, statistical analysis of protein regulations from the in vivo samples was performed using the LIMMA R-package.15 P-values where adjusted according to Benjamini-Hochberg16 and a gene set variation analysis was performed (GSVA).17 Protein Sets where constructed using the molecular signature database.18
Total metal content in organs harvested from 1a-treated mice was determined by inductively coupled plasma mass spectrometry (ICP-MS) on an Agilent 7800 instrument and Agilent SPS 4 autosampler using the following parameters: RF power 1550, carrier gas (Ar) 1.08 L∙min-1, plasma gas (Ar) 15 L∙min-1, dwell time 0.1 s, 12 replicates with 100 sweeps. A […]
by Agilent MassHunter (Version C.01.04) software.
The lower limit of quantification of the method was 0.071 µg L-1. Organs, tumour and blood were digested with nitric acid (20% w/w) and diluted with ultrapure water to reach a final nitric acid concentration <4%.

SW480 cancer cells = assay: Cell cycle analysis by flow cytometry (propidium iodide); format: cell-based, human; details: 24 h; 1a 12.5 to 50 nM; gemcitabine 10 nM
p21 = p21 expression, immunofluorescence, CT26; format: cell-based, murine; details: 24 h, 1 μM
Method: Cell Signaling Technology (Danvers, MA, USA), respectively. Horseradish-peroxidase-linked secondary antibodies, anti-mouse IgG (Fc specific) antibody (#7076S) and anti-rabbit IgG antibody (#7074S) were purchased from Cell Signaling Technology (Danvers, MA, USA). Anti-ß-actin (AC-15) (A5441, 1:2000) was obtained from Sigma-Aldrich (St. Louis, MO, USA).
SW480 and CT26 cells were grown at a density of 6.7x10^4 cells/mL on 8-well glass coverslips (80841, ibidi GmbH, Gräfelfing, Germany) in 300 µL complete media. The next day, cells were treated with respective compounds for 24 h. Cells were fixed with 4%(v/v) paraformaldehyde for 15 min at RT, followed by washing, blocking and permeabilization with 5%(w/v) BSA and […]
(1 : 500) were diluted in 1% BSA-0.3% Triton-X-100 in PBS and incubated overnight at 4 °C.
One well was incubated without primary antibody as background control. Cells were washed and stained with secondary goat anti-mouse AlexaFlour-488 (1 : 500 dilution, A-11029, Thermo Fisher Scientific) or goat anti-rabbit AlexaFlour-488 (1 : 500 dilution, A-11034, Thermo Fisher Scientific) antibodies for 1 h at RT. Following, cells were stained with 0.2% Wheat Germ Agglutinin (WGA)-Rhodamine (RL-1022, Vector Laboratories, Inc.) and 0.1% DAPI (62248, Thermo Fisher Scientific) for staining of plasma membrane and nuclei, respectively, according to manufacturer’s recommendations. […]

[2] = test system: HCT116 TP53 wild-type (TP53WT); assay: MTT viability assay, HCT116 TP53 wild-type, 96 h; format: cell-based, human
Method: (§1) removed and 100 µL DMSO was added to dissolve the formazan crystals. Photometric quantification was performed at 570 nm with a Multiskan Go 1510 photometer (Thermo Fisher […]
(§2) The absorbances were blank corrected and converted to relative proliferation. The IC50 values (concentration of 50% growth inhibition) were obtained using a sigmoidal fit of the experimental data and calculated as the mean ± standard deviation of at least three independent experiments, each in at least triplicates.
(§3) HCT116, HCT116 p53KO (each 2.000 cells/well) and CT-26 cells (500 cells/well) were seeded in 100 µL/well into flat-bottom 96-well plates (Starlab) and incubated at 37 °C for 96 h in a humidified incubator (Binder CB210) at 5% CO2. The test compound was dissolved in DMSO, serially diluted in the appropriate cell culture medium (see section above) to final DMSO concentrations of ≤0.5% v/v and 100 µL aliquots added to wells in triplicates. […] Optical densities were measured with a microplate reader (ELx808, Biotek) at a wavelength of 550 nm (and a reference wavelength of 690 nm) and blank corrected. […]
(§4) (each 3.000 cells/well) were seeded in 100 µL/well into flat-bottom 96-well plates (Starlab) and incubated at 37 °C for 24 h in a humidified incubator (Binder CB210) at 5% CO2. […] After 24 h of treatment, plates were measured by MTT assay as described above. […]

[3] = test system: murine CT26 colon carcinoma cells; assay: MTT viability assay, CT26, 96 h; format: cell-based; details: wildtype TP53
Method: as §1, §2, §3, §4

CCC1=C2[O][Ru][O]C2(n2cccn2)c2ccccc2C1=O.Cc1ccc(C(C)C)cc1 (centres unmarked) [Compound 1a, [(3-ethyl-4-oxo-(pyrazolyl)-dihydronaphthalene)(cymene)ruthenium(II)]]
101Ru content, blood clot [1]: < 0.4 mg/kg | 101Ru content, blood serum [1]: < 0.4 mg/kg | 101Ru content, liver [1]: 10 ± 1 mg/kg | 101Ru content, tumour [1]: 0.9 ± 0.7 mg/kg | cell cycle distribution (SW480 cancer cells): dose-dependent increase in the S and G2/M phases | p21 expression, CT26 (p21): significantly reduced p21 expression | IC50 [2]: 130 ± 20 nM | IC50 [3]: 800 ± 150 nM
